Source: patent US20110275599A1, “USE OF COLD-STABILIZED METHYLATED VEGETABLE OILS AS AN AGRICULTURAL CHEMICAL COFORMULANT” (priority 2010, published 2011)

Test: High throughput solubility screen in Permaflo methylated soybean oil
Type: physicochemical
Description: The solubility of several agricultural active ingredients in Permaflo methylated soybean oil was determined using a high throughput solubility screen.
Liquid handler was calibrated for each liquid and vials were tared. Active ingredients were melted or dissolved and then transferred into tared vials. Solvent was removed or active was allowed to crystallize before weighing. Permaflo methylated soybean oil was added in desired quantities; vials were weighed, and capped. Mixtures were agitated (220 rpm) for 48 hours at 0° C. […] Samples were held at 0° C. for 24 hours before imaging. Samples were transferred to shaker plate on bench and were agitated for 48 hours, before seeding, holding for 24 hours and imaging. Samples were then transferred to 40° C. shaker plate, agitated for 48 hours, seeded, held and then imaged again. All samples were imaged using normal light.

| SMILES | solubility in Permaflo methylated soybean oil (0° C.) | solubility in Permaflo methylated soybean oil (24° C.) | solubility in Permaflo methylated soybean oil (40° C.) |
| --- | --- | --- | --- |
| CCOP(=S)(OCC)Oc1nc(Cl)c(Cl)cc1Cl [Chlorpyrifos] | 35% | 55% | >60% |
| Nc1c(Cl)c(F)nc(OCC(=O)O)c1Cl [Fluroxypyr] | 25% | 35% | 55% |
